The structures appear in SMILES notation.

These results are taken from patent publication US12570659B2, “Bicyclic heteroaryl compounds useful as IRAK4 inhibitors” (BRISTOL-MYERS SQUIBB COMPANY, priority 2019, dated 2026).

Assay [1] has as its target IRAK4 (Homo sapiens (Human), UniProt Q9NWZ3). Nature of the assay: IRAK4 Inhibition Assay. Type of assay: biochemical. Conditions: ATP 500 μM; IRAK4 0.6 nM; 60 min room temperature. The gist of the method:
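Phosphorylated and unphosphorylated fluorescent substrate were resolved by microfluidic electrophoresis after termination with 35 mM EDTA. The room-temperature kinase reaction lasted 60 min after IRAK4, substrates and test compound were combined; vehicle-only defined 0% and no-enzyme 100% inhibition.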

Assay [2] has as its system TLR2 agonist-stimulated IL-6 in human whole blood. Nature of the assay: IRAK4 Whole Blood Assay. Type of assay: cell-based. The settings on record: lipoteichoic acid 10 μg/mL, 5 hours, IL-6 levels. As to the method:
Human whole blood containing the anti-coagulant ACD-A was plated in 384-well plate (25 μL/well) and incubated with compounds for 60 minutes at 37° C. in a 5% CO2 incubator. The blood was stimulated with a TLR2 agonist, 10 μg/mL final concentration of lipoteichoic acid (Invivogen, San Diego, CA) in 25 μL RPMI (Gibco) for 5 hours in a 5% CO2 incubator. At the end of the incubation, plates were centrifuged at 2300 rpm for 5 minutes. Supernatants were harvested and analyzed for IL-6 levels by Flow Cytometry beads assay (BD Biosciences, San Jose, CA).

Assay [3] concerns the target JAK3 kinase (Homo sapiens (Human), UniProt P52333). Nature of the assay: JAK3 Homogeneous Time Resolved Fluorescence (HTRF) Assay. Type of assay: binding. Conditions: for IC50: competition binding with fluorescein-labeled ATP competitive probe; for Ratio of JAK3 IC50 to IRAK4 IC50: selectivity for IRAK4 over JAK3. The gist of the method: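 IC50 reflects displacement of a fluorescein-labeled ATP-site probe (at its Kd) from 1 nM tagged JAK3, detected via 0.2 nM Tb anti-His or anti-GST antibody. One-hour incubation; 495 and 520 nm emission ratios, background-subtracted, normalized to maximum signal; 11-point percent inhibition, 4-parameter logistic.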
Background: Time-resolved FRET reads energy transfer from a long-lived donor to a nearby acceptor.

JAK3 kinase, sequence (P52333 whole entry): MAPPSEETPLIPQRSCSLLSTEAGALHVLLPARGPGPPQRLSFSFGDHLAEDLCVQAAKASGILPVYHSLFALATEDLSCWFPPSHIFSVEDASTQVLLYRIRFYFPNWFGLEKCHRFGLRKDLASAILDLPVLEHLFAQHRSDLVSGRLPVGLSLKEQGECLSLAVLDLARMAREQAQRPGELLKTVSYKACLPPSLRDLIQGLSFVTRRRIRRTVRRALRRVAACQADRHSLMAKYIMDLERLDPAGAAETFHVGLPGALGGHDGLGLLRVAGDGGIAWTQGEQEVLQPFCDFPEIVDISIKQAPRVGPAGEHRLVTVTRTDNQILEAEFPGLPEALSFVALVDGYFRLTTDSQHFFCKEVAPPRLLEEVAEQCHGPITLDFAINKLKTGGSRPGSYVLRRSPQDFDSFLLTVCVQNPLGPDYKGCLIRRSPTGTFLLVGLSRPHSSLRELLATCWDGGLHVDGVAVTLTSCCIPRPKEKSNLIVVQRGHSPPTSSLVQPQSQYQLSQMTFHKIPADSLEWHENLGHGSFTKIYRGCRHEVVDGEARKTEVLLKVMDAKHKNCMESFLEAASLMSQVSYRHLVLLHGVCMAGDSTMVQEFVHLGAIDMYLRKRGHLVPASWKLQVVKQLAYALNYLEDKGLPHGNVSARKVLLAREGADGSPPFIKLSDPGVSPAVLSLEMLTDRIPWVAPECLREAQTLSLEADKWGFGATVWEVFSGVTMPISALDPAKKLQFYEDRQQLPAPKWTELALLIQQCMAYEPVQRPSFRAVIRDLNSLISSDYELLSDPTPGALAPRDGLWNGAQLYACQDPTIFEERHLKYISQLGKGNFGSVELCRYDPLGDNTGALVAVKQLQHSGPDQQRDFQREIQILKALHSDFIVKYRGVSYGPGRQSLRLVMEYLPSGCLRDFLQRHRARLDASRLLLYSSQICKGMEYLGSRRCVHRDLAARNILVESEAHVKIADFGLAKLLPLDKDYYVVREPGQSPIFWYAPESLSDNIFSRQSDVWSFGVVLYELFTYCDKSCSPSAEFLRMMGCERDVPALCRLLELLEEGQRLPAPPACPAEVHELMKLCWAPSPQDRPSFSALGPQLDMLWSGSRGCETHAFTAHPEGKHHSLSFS
IRAK4, sequence (Q9NWZ3 whole entry, species assumed): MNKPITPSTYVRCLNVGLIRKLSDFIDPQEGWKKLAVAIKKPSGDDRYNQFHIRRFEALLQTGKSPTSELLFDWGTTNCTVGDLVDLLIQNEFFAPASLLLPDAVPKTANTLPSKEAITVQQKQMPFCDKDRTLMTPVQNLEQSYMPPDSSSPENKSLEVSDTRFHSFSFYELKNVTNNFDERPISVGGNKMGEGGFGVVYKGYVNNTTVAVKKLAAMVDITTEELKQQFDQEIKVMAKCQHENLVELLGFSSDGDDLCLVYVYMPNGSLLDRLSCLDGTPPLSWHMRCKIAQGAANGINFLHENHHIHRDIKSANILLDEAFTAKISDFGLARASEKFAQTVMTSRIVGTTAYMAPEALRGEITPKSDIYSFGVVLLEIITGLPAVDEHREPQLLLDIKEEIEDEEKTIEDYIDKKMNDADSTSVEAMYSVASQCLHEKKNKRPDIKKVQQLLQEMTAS

What is called IC50 is the concentration at which inhibition is half-maximal. Take `CC(C)Nc1c(C(=O)NC[C@@H](F)C(C)(C)O)cnn2cc(-c3cncs3)cc12` [Example 55, (R)—N-(2-fluoro-3-hydroxy-3-methylbutyl)-4-(isopropylamino)-6-(thiazol-5-yl)pyrrolo[1,2-b]pyridazine-3-carboxamide]: the results for the IC50 in assay [1], in assay [2] and in assay [3] were 0.0039 µM, > 10 µM and > 50 µM, respectively. Besides, in assay [3], the “Ratio of JAK3 IC50 to IRAK4 IC50” value is >12821.

On to `CC(C)Nc1c(C(=O)N[C@H]2CC[C@H](c3nc[nH]n3)CC2)cnn2cc(-c3ccc(F)nc3)cc12` [Example 92, N-((1r,4r)-4-(1H-1,2,4-triazol-3-yl)cyclohexyl)-6-(6-fluoropyridin-3-yl)-4-(isopropylamino)pyrrolo[1,2-b]pyridazine-3-carboxamide], for which the IC50 in assay [1] was 0.01 µM; in assay [2], 6.97 µM; in assay [3], > 50 µM. Further, in assay [3], the “Ratio of JAK3 IC50 to IRAK4 IC50” value is on record as >5000.

Regarding `CNC(=O)[C@H]1CC[C@H](NC(=O)c2cnn3cc(-c4ccncc4F)cc3c2NC(C)C)CC1` [Example 87, 6-(3-fluoropyridin-4-yl)-4-(isopropylamino)-N-((1r,4r)-4-(methylcarbamoyl)cyclohexyl) pyrrolo[1,2-b]pyridazine-3-carboxamide], the values for the 50% inhibitory concentration (IC50) in assay [1], in assay [2] and in assay [3] were 0.0031 µM, 0.26 µM and > 50 µM, respectively. For the same compound, the “Ratio of JAK3 IC50 to IRAK4 IC50” value in assay [3] is on record as >16129.

As to `CC(C)Nc1c(C(=O)NC[C@@H](F)C(C)(C)O)cnn2cc(-c3cccnc3)cc12` [Example 3, (R)—N-(2-fluoro-3-hydroxy-3-methylbutyl)-4-(isopropylamino)-6-(pyridin-3-yl)pyrrolo[1,2-b]pyridazine-3-carboxamide], the values for the IC50 in assay [1], in assay [2] and in assay [3] were 0.016 µM, 9.5 µM and 31 µM, respectively. In addition, in assay [3], the “Ratio of JAK3 IC50 to IRAK4 IC50” value stood at 1938.

Take `CC(C)Nc1c(C(=O)NCCN2CCOCC2)cnn2cc(-c3ccncc3F)cc12` [Example 71, 6-(3-fluoropyridin-4-yl)-4-(isopropylamino)-N-(2-morpholinoethyl)pyrrolo[1,2-b]pyridazine-3-carboxamide]: the IC50 in assay [1] was 0.0072 µM; in assay [2], > 10 µM; in assay [3] it was 7 µM. Besides, the “Ratio of JAK3 IC50 to IRAK4 IC50” value in assay [3] is reported as 972.

`CC(=O)N[C@H]1CC[C@H](NC(=O)c2cnn3cc(-c4ccncc4F)cc3c2NC(C)C)CC1` [Example 65, N-((1r,4r)-4-acetamidocyclohexyl)-6-(3-fluoropyridin-4-yl)-4-(isopropylamino)pyrrolo[1,2-b] pyridazine-3-carboxamide]: the IC50 in assay [1] is 0.0016 µM; in assay [2], 0.36 µM; in assay [3], > 50 µM. Also, in assay [3], the “Ratio of JAK3 IC50 to IRAK4 IC50” value is listed as >31250.

For the compound `CC(C)Nc1c(C(=O)N[C@H]2CC[C@H](C(N)=O)CC2)cnn2cc(-c3ccncc3F)cc12` [Example 89, N-((1r,4r)-4-carbamoylcyclohexyl)-6-(3-fluoropyridin-4-yl)-4-(isopropylamino) pyrrolo[1,2-b]pyridazine-3-carboxamide], the results for the IC50 in assay [1], in assay [2] and in assay [3] were 0.0038 µM, 1.36 µM and > 50 µM, respectively. The “Ratio of JAK3 IC50 to IRAK4 IC50” value in assay [3] was >13158.

For `CC(=O)N[C@H]1CC[C@H](NC(=O)c2cnn3cc(-c4ccc(CO)nc4)cc3c2NC(C)C)CC1` [Example 73, N-((1r,4r)-4-acetamidocyclohexyl)-6-(6-(hydroxymethyl)pyridin-3-yl)-4-(isopropylamino)pyrrolo[1,2-b]pyridazine-3-carboxamide], the half-inhibitory concentration (IC50) in assay [1] was 0.0031 µM; in assay [2] it was 0.65 µM; in assay [3], > 50 µM. Besides, the “Ratio of JAK3 IC50 to IRAK4 IC50” value in assay [3] is recorded as >16129.

With `CC(=O)N[C@H]1CC[C@H](NC(=O)c2cnn3cc(-c4cccnc4)cc3c2NC(C)C)CC1` [Example 48, N-((1r,4r)-4-acetamidocyclohexyl)-4-(isopropylamino)-6-(pyridin-3-yl)pyrrolo[1,2-b]pyridazine-3-carboxamide], the half-maximal inhibitory concentration (IC50) in assay [1] was 0.0059 µM; in assay [2] it was 0.85 µM; in assay [3], > 50 µM. In assay [3], the “Ratio of JAK3 IC50 to IRAK4 IC50” value is reported as >8475.

Turning to `CC(=O)N[C@H]1CC[C@H](NC(=O)c2cnn3c(Cl)c(-c4ccncc4)cc3c2NC(C)C)CC1` [Example 80, N-((1r,4r)-4-acetamidocyclohexyl)-7-chloro-4-(isopropylamino)-6-(pyridin-4-yl)pyrrolo[1,2-b]pyridazine-3-carboxamide], the 50% inhibitory concentration (IC50) is 0.002 µM in assay [1], 0.72 µM in assay [2] and ~35 µM in assay [3]. Besides, in assay [3], the “Ratio of JAK3 IC50 to IRAK4 IC50” value is ~17500.

Turning to `CC(C)Nc1c(C(=O)NC2CCN(S(C)(=O)=O)CC2)cnn2cc(-c3ccc(F)nc3)cc12` [Example 85, 6-(6-fluoropyridin-3-yl)-4-(isopropylamino)-N-(1-(methylsulfonyl)piperidin-4-yl)pyrrolo[1,2-b]pyridazine-3-carboxamide], the IC50 in assay [1] was 0.0025 µM; in assay [2], 0.87 µM; in assay [3] it was ~31 µM. In addition, in assay [3], the “Ratio of JAK3 IC50 to IRAK4 IC50” value is reported as ~12400.

Consider `CC(C)Nc1c(C(=O)NC2CCN(S(C)(=O)=O)CC2)cnn2cc(-c3ccncc3F)nc12` [Example 111, 2-(3-fluoropyridin-4-yl)-8-(isopropylamino)-N-(1-(methylsulfonyl)piperidin-4-yl)imidazo[1,2-b]pyridazine-7-carboxamide], for which the IC50 in assay [1] was 0.013 µM; in assay [2], 3.73 µM; in assay [3] it was > 50 µM. Also, the “Ratio of JAK3 IC50 to IRAK4 IC50” value in assay [3] is recorded as >3846.

Take `Cc1cc(F)ncc1-c1cc2c(NC(C)C)c(C(=O)N[C@H]3CC[C@H](c4nc[nH]n4)CC3)cnn2c1` [Example 91, N-((1r,4r)-4-(1H-1,2,4-triazol-3-yl)cyclohexyl)-6-(6-fluoro-4-methylpyridin-3-yl)-4-(isopropylamino)pyrrolo[1,2-b]pyridazine-3-carboxamide]: the half-maximal inhibitory concentration (IC50) was 0.0052 µM in assay [1], 1.46 µM in assay [2] and > 50 µM in assay [3]. In addition, the “Ratio of JAK3 IC50 to IRAK4 IC50” value in assay [3] is >9615.

`CC(C)Nc1c(C(=O)N[C@H]2CC[C@H](O)CC2)cnn2cc(-c3ccncc3)cc12` [Example 60, N-((1r,4r)-4-hydroxycyclohexyl)-4-(isopropylamino)-6-(pyridin-4-yl)pyrrolo[1,2-b]pyridazine-3-carboxamide]: the IC50 in assay [1] is 0.0095 µM; in assay [2], 3.95 µM; in assay [3], > 50 µM. For the same compound, in assay [3], the “Ratio of JAK3 IC50 to IRAK4 IC50” value is given as >5263.

As to `COC(=O)N[C@H]1CC[C@H](NC(=O)c2cnn3cc(-c4ccncc4)cc3c2NC(C)C)CC1` [Example 51, methyl ((1r,4r)-4-(4-(isopropylamino)-6-(pyridin-4-yl)pyrrolo[1,2-b]pyridazine-3-carboxamido)cyclohexyl)carbamate], the results for the IC50 in assay [1], in assay [2] and in assay [3] were 0.0028 µM, 1.76 µM and > 50 µM, respectively. Also, in assay [3], the “Ratio of JAK3 IC50 to IRAK4 IC50” value was >17857.

`CC(C)Nc1c(C(=O)NC[C@@H](F)C(C)(C)O)cnn2cc(-c3ccc(N)nc3)cc12` [Example 45, (R)-6-(6-aminopyridin-3-yl)-N-(2-fluoro-3-hydroxy-3-methylbutyl)-4-(isopropylamino) pyrrolo[1,2-b]pyridazine-3-carboxamide]: the 50% inhibitory concentration (IC50) is 0.0079 µM in assay [1], 4.68 µM in assay [2] and ~29 µM in assay [3]. Moreover, the “Ratio of JAK3 IC50 to IRAK4 IC50” value in assay [3] is listed as ~3671.

As for `COC(=O)Nc1cc(-c2cc3c(NC(C)C)c(C(=O)NC[C@@H](F)C(C)(C)O)cnn3c2)ccn1` [Example 46, methyl (R)-(4-(3-((2-fluoro-3-hydroxy-3-methylbutyl)carbamoyl)-4-(isopropylamino)pyrrolo[1,2-b]pyridazin-6-yl)pyridin-2-yl) carbamate], the half-maximal inhibitory concentration (IC50) in assay [1] is 0.0091 µM; in assay [2] it was 6.23 µM; in assay [3] it was > 50 µM. The “Ratio of JAK3 IC50 to IRAK4 IC50” value in assay [3] is >5495.

For `Cc1cc(F)ncc1-c1cc2c(NC(C)C)c(C(=O)N[C@H]3CC[C@H](C(N)=O)CC3)cnn2c1` [Example 88, N-((1r,4r)-4-carbamoylcyclohexyl)-6-(6-fluoro-4-methylpyridin-3-yl)-4-(isopropylamino)pyrrolo[1,2-b]pyridazine-3-carboxamide], the IC50 is 0.0076 µM in assay [1], > 10 µM in assay [2] and > 50 µM in assay [3]. Also, the “Ratio of JAK3 IC50 to IRAK4 IC50” value in assay [3] is given as >6579.

`CC(C)Nc1c(C(=O)NC[C@@H](F)C(C)(C)O)cnn2cc(-c3ccc(C#N)cc3)cc12` [Example 1, (R)-6-(4-cyanophenyl)-N-(2-fluoro-3-hydroxy-3-methylbutyl)-4-(isopropylamino)pyrrolo[1,2-b]pyridazine-3-carboxamide]: the figures for the IC50 in assay [1], in assay [2] and in assay [3] were 0.012 µM, > 10 µM and 20 µM, respectively. The “Ratio of JAK3 IC50 to IRAK4 IC50” value in assay [3] is recorded as 1667.

Consider `CC(C)CCNC(=O)c1cnn2cc(-c3ccncc3)cc2c1NC(C)C` [Example 64, N-isopentyl-4-(isopropylamino)-6-(pyridin-4-yl)pyrrolo[1,2-b]pyridazine-3-carboxamide], for which the IC50 was 0.014 µM in assay [1], 8.91 µM in assay [2] and ~29 µM in assay [3]. In addition, the “Ratio of JAK3 IC50 to IRAK4 IC50” value in assay [3] is given as ~2071.
